# Measurements taken from PubChem BioAssay AID1996.
# Settings: buffer; pH 7.4; 200.0 µM
row,Structure (SMILES),solubility kinetic [µg/mL]
1,S=C(Nc1ccccc1Cl)N1CCN(c2ccccn2)CC1,2.3
2,CC1CCCN(c2cc(N(C)CCO)c([N+](=O)[O-])c3nonc23)C1 (centres undefined),> 50.3
3,CC(=O)N1CC(=O)Nc2ccc(F)cc2C1c1ccccc1 (centres undefined),> 44.7
4,CN(Cc1ccco1)C(=O)CN1C(=O)NC2(CCCC2)C1=O,43
5,O=C(c1ccc(Cl)c(S(=O)(=O)N2CCc3ccccc32)c1)N1CCN(c2ccccc2O)CC1,11.3
6,Cc1ccc2[nH]c3c(c2c1)CN(C(=O)CN1CCCCC1)CC3,41.8
7,CC1(CCl)CN1S(=O)(=O)c1ccccc1 (centres undefined),30.8
8,CN(CC(=O)NCc1cccnc1)S(=O)(=O)c1ccc(F)cc1,> 50.6
9,Nc1cc(Cl)ccc1C(=O)OCC(=O)N1CCCCCC1,5.4
10,Cc1ccc(NC(=O)C(C)OC(=O)/C=C/c2ccccc2)cc1 (centres undefined),4
11,N#C/C=C/N1CCC(Cc2ccccc2)CC1,29.6
12,CN(C)C(CNC(=O)c1cccs1)c1ccco1 (centres undefined),> 39.7
13,O=C(CSc1nnc(Nc2ccccc2F)s1)NC1CCS(=O)(=O)C1 (centres undefined),> 60.4
14,O=C(Nc1sc2c(c1C(=O)O)CCC2)c1ccccc1Cl,41.1
15,O=C(NC1CCCC1)C1CC(O)CN1C(=O)Nc1ccccc1 (centres undefined),> 47.6
16,CN(c1ccccc1C(=O)NCc1ccccc1Cl)S(=O)(=O)c1ccccc1,31.3
17,CC(O)Cn1cnc2c1c(=O)n(C)c(=O)n2C (centres undefined),> 35.7
18,CC(=O)Nc1ccc(S(=O)(=O)NCc2ccncc2)cc1,> 45.8
19,CC1CCCC(C)N1C(=O)COC(=O)/C=C/c1ccco1 (centres undefined),10
20,O=C(O)CCNC(=O)/C(=C/c1ccco1)NC(=O)c1ccco1,> 47.7
21,Cn1c(N)c(N=O)c(=O)n(C)c1=O,> 27.6
22,O=C(CCNC(=O)c1ccco1)NCCc1c[nH]c2ccccc12,33.1
23,O=C(Cc1ccccc1[N+](=O)[O-])Nc1nccs1,7.3
24,O=C(Nc1ccccc1)/C(=C1\CCCN1)[N+](=O)[O-],29.6
25,CC1CCCC(NC(=O)c2ccc3c(c2)OCO3)C1C (centres undefined),> 41.3
26,O=C(COC(=O)C12CC3CC(CC(O)(C3)C1)C2)Nc1ccc(Cl)c(S(=O)(=O)N2CCOCC2)c1,> 77

row,Structure (SMILES),solubility kinetic [µg/mL]
1,O=C(CN1C(=O)c2ccccc2S1(=O)=O)NCc1ccco1,> 48
2,CCC(=O)c1c(NC(C)C)cc(C)oc1=O,> 33.5
3,Cc1cc(C(=O)N2CCC(C(=O)O)CC2)c(C(F)(F)F)o1,> 45.8
4,O=C(COC(=O)COc1ccccc1F)NC1CC1,37
5,COCC(=O)Nc1ccc(Br)c(C)c1,> 38.7
6,N#CCCN(C(=O)COC(=O)/C=C/c1cccs1)c1ccccc1,9.9
7,N#CC(C#N)=Cc1ccc(N2CCOCC2)cc1,4.4
8,COC(=O)/C=C/COc1ccccc1[N+](=O)[O-],17.9
9,Cc1c(Cl)cccc1NC(=O)CCN1CCN(C)CC1,> 44.4
10,COC(=O)c1ccc(N2CCS(=O)(=O)CC2)cc1,> 40.4
11,CC(C)CC(N=Cc1c(O)c2ccccc2oc1=O)C(=O)O (centres undefined),> 45.5
12,N#C/C(=C\Nc1ccc(Cl)cn1)S(=O)(=O)c1ccccn1,3.7
13,COC(=O)[C@@H]1CC(O)CN1C(=O)C12CC3CC(CC(C3)C1)C2 (some centres undefined),> 46.1
14,CCCC(=O)NC(=S)Nc1ccc(CN2CCOCC2)cc1,> 48.2
15,O=C(Nc1ccccc1O)c1ccc([N+](=O)[O-])cc1,24.1
16,COCCNC(=O)C(NC(=O)C1CCCCC1)C(C)C (centres undefined),> 42.7
17,CC(CCc1ccccc1)NC(=O)CN(C)Cc1ccc(F)cc1 (centres undefined),34.4
18,Nc1nnc(SCC(=O)Nc2cccnc2Cl)s1,> 45.3
19,N#CCCN(Cc1cccs1)C(=O)Nc1ccc(F)cc1,> 45.5
20,Cc1cc(C(=O)OCC(=O)N2CCCCCC2)ccc1[N+](=O)[O-],> 48.1
21,NC(=O)C1(c2ccccc2)CCC(=O)N1c1ccccc1 (centres undefined),> 42
22,CCCC1/C(=N/O)CC(c2ccccc2)NC1c1ccccc1 (centres undefined),< 0.3
23,O=C(Nc1nccs1)c1ccc(Br)s1,5.6
24,NC(=O)C1CCN(Cc2nc(-c3cccs3)no2)CC1,> 43.9
25,Cc1ccsc1-c1nc(CN2CCN(C)C(=O)[C@@H]2C)c(C)o1,40

# Other lines, results leading:
row,solubility kinetic [µg/mL],Structure (SMILES)
1,> 66.4,CCOc1ccccc1Nc1nnc(SCC(=O)N(C)C2CCS(=O)(=O)C2)s1 (centres undefined)
2,41,CC(NCc1ccc2c(c1)OCO2)c1ccccc1.Cl (centres undefined)
3,0.4,Cc1ccc(OCc2ccc(-c3ccccc3)cc2)c([N+](=O)[O-])n1
4,0.7,COc1ccccc1CNC(=O)c1cc(-c2cccnc2)nc2ccccc12
5,2.3,N#Cc1ccc(COC(=O)c2ccc3c(c2)OCO3)cc1
6,5.2,COc1ccc2nc(SCC(=O)NCC3CCCO3)c(C#N)cc2c1 (centres undefined)
7,> 74.7,COc1ccc(C(CNS(=O)(=O)c2ccc(NC(C)=O)c(OC)c2)N2CCCCC2)cc1.Cl (centres undefined)
8,29.4,Cc1ccc(-c2c(NC(=O)C(C)C)n(C)c3ccccc3c2=O)cc1
9,> 50.5,O=C1CCc2cc(S(=O)(=O)Nc3ccccc3Cl)ccc2N1
10,> 48.2,COc1ccc(OCC(=O)NS(=O)(=O)c2ccccc2)cc1
11,27,Clc1ccc(Cn2cnc3ccccc32)cc1
12,6.1,CN(C)c1cccc(NC(=O)c2cccc3ccccc23)c1
13,< 0.7,Cc1cc(C(=O)Nc2ccc(OCc3ccccc3)cc2)c(C)o1
14,13.1,Cc1ccc(C(=O)OCC(=O)NC2CCCc3ccccc32)o1 (centres undefined)
15,< 0.7,CC(=O)c1cccc(NC(=O)c2ccc(OC3CSC3)cc2)c1
16,0.5,O=C(NCc1ccc2c(c1)OCO2)C(=O)Nc1ccccc1
17,43.2,Br.O=[N+]([O-])c1ccc(CSC2=NCCN2)cc1
18,> 40.8,C=C(C)C(=O)Nc1cccnc1Oc1ccc(F)cc1
19,> 48.5,CCOc1ccc(NC(=S)NCCCN2CCOCC2)cc1
20,12.4,COc1ccc2ccc(OCC(=O)Nc3cc(C)on3)cc2c1
21,> 52.4,Cn1c(COc2ccccc2O)[n+](C)c2ccccc21.[Br-]
22,15.1,CN(C)c1ccc(NC(=O)c2cccc([N+](=O)[O-])c2)c2ccccc12
23,> 50,O=C(CN1C(=O)c2ccccc2S1(=O)=O)c1ccc(O)c(O)c1

row,solubility kinetic [µg/mL],Structure (SMILES)
1,> 45.9,COc1ccc(Cl)cc1C(=O)O/N=C(\N)c1ccccn1
2,3.9,CC1c2cc3c(cc2CCN1CC(=O)Nc1ccccc1)OCCCO3 (centres undefined)
3,< 0.3,Cc1ccc(NC(=O)Cn2cc(C=O)c3ccccc32)cc1C
4,> 32.1,Cc1nc(C)n(C)c(=O)c1-c1ccccc1
5,1.95,N#Cc1c2ccc(OCC(N)=O)cc2n2ccccc12
6,> 43.6,O=C(NCc1ccc2c(c1)OCO2)c1ccc(Cl)nc1
7,40.8,COc1ccc(CC(=O)N2CCC(c3ccccc3)C2)cc1 (centres undefined)
8,> 43.6,Cc1cc(CNC(=O)Cc2ccccc2)c2ccccc2n1
9,20.8,CC1CCCC(C)N1C(=O)COc1cccc(Oc2ccccc2)c1 (centres undefined)
10,> 42.8,COC(=O)c1ccccc1NC(=O)Nc1ccc(C)cn1
11,45.3,COc1ccc(C(CNC(=O)c2cc(C)on2)N(C)C)cc1 (centres undefined)
12,3.3,COc1ccc2nc(N(Cc3ccccc3)C(=O)CCNC(C)=O)sc2c1
13,> 36.3,Cc1cc(C(=O)O)ccc1NCc1ccncc1
14,> 65,CCS(=O)(=O)c1ccc(O)c(NC(=O)c2cc(-c3ccccn3)nc3ccccc23)c1
15,40.5,COc1ccc(OC)c(N/C(N)=N/c2nc(C)cc(C)n2)c1
16,39.2,O=C(NCCCCO)c1ccc2c3c(cccc13)CC2
17,> 44.3,O=C1c2cccc3c2N(CCC3)C(=O)C1(F)c1ccccc1 (centres undefined)
18,7,COc1ccccc1NC(=O)c1ccc(S(=O)(=O)N(C)c2ccccc2OC)cc1
19,16,Cc1cc(=O)[nH]c2ccc(S(=O)(=O)N3CCOCC3)cc12
20,< 0.3,O=C(Nc1cccc2cccnc12)c1ccc(Cl)cc1
21,< 0.3,CN1C(=O)N(C)c2ccc(Br)c3cccc1c23
22,42.3,COc1ccc2nc(C)cc(NCCN3CCOCC3)c2c1
23,> 42.8,COc1ccc(CC(=O)O/N=C(\N)c2ccccn2)cc1

row,solubility kinetic [µg/mL],Structure (SMILES)
1,2.6,COc1ccc(C(=O)NC(=S)NC(C)c2ccccc2)cc1 (centres undefined)
2,32,COc1ccc(C=O)cc1Oc1nc(Cl)ncc1F
3,35.3,COc1ccccc1NC(=O)CN1CCN(c2ccccc2)CC1
4,31.7,Cc1cc(C)c(C#N)c(OCC(=O)Nc2ccccc2)n1
5,> 48.4,NC(=O)C1Cc2ccccc2CN1S(=O)(=O)c1cccs1 (centres undefined)
6,18.1,N#Cc1ccc(-c2nc3ccc(Br)cc3c(=O)n2O)cc1
7,19.7,COc1ccc(C(C)NC(=O)CC23CC4CC(CC(C4)C2)C3)cc1 (centres undefined)
8,> 36.9,O=C1CCCc2c1nc(-c1ccccc1F)n2O
9,> 38.3,COc1ccccc1C1NC(=O)c2ccccc2O1 (centres undefined)
10,0.5,COc1cccc(CC(=O)Nc2nc(-c3ccc(F)c(F)c3)cs2)c1
11,> 51.5,COc1ccc(OCC(O)CNS(=O)(=O)c2cccs2)cc1 (centres undefined)
12,> 56.5,Cc1cc(F)ccc1S(=O)(=O)Nc1ccc(C(=O)N2CCCCC2)cc1
13,> 56,CCc1cc(=O)oc2c(C)c(OC(C)C(=O)N3CCC[C@@H]3C(=O)O)ccc12 (some centres undefined)
14,> 52.9,CC1CN(C(C)C(=O)NC(c2ccccc2)c2ccccc2)CC(C)O1 (centres undefined)
15,0.8,O=[N+]([O-])c1ccc(N2CCN(c3ccccn3)CC2)c(Cl)c1
16,42,COc1ccc(OCC2NCCc3cc(OC)c(OC)cc32)cc1 (centres undefined)
17,45.7,O=C(NCCc1c[nH]c2ccccc12)c1ccc(Br)o1
18,39.2,COc1ccc(C(C)=O)cc1CC(=O)NC1CCCCCC1
19,> 46.7,Cc1ccc(S(=O)(=O)Nc2csc(C)c2C(=O)O)cc1
20,10,CSc1ncccc1C(=O)OCC(=O)Nc1nc(C)c(Cl)cc1Cl
21,1,CN(C(=O)c1ccc(Oc2ccc([N+](=O)[O-])cc2)cc1)C1CCCCC1
22,5.6,Cc1ccc(C(=O)NCCc2ccc(F)cc2)s1
